Laboratory results: patent US20080275075A1, “Medicine Comprising a Combination of an Acetylcholinesterase Inhibitor and a 5-Substituted-3-Oxadiazolyl-1,6-Naphthyridin-2(1H)-One Derivative” (priority 2004, published 2008)
Structures can show the parent of a compound that is named as a salt.

Key:
[1] = test system: spatial memory disorder induced by MK-801; assay: Ameliorating effect on spatial memory disorder induced by MK-801 (Y-maze alternation behavior); type: in vivo, ddY male mice; details: for [MED (mg/kg)]: minimum effective dose, oral, 1 h before MK-801 0.1 mg/kg s.c., single administration
Experimental: (§1) The pharmacological experiment to investigate ameliorating effect on spatial memory disorder induced by scopolamine was carried out by systemic administration to animals according to the following method of Itoh, T. et al. In addition, the pharmacological experiment to investigate ameliorating effect on spatial memory disorder induced by MK-801 was carried out by systemic administration to animals according to the following method of Maurice, T. et al.
(§2) The spatial memory test using Y-maze apparatus which was selected for the pharmacological experiment is a test to utilize the behavioral property of animals to enter into a new arm, avoiding the arm that they entered into just before (alternation behavior). This method is often used in order to study spatial working memory.
This experiment was carried out according to the method of Maurice, T., et al. [Brain Res., 647, pp. 44-56 (1994)].
Ten to twelve ddY male mice weighing 26-36 g were used per one group in the experiment. A solution of MK-801 in physiological saline (concentration: 0.01 mg/ml) was subcutaneously administered to mice in a volume of 0.1 ml/10 g of body weight, i.e., 0.1 mg/kg. One hour before MK-801 administration, the groups of mice to which each test compound should be singly administered were orally treated with test compound A, test compound B or donepezil suspended in 0.5% tragacanth solution in a volume of 0.1 ml/10 g of body weight; and the animals in the amnesia control group and the vehicle control group orally received a 0.5% tragacanth solution in a volume of 0.1 ml/10 g of body weight. However, the vehicle control group was injected with physiological saline instead of MK-801. Twenty minutes after administration of MK-801, the mice were placed at the end of the arm A of the Y-maze apparatus which was composed of three black acrylic trapezoid arms (bottom width: 3 cm, height of side wall: 12 cm, width of opened ceiling: 10 cm, length: 40 cm), wherein said three arms were connected at the one end of each arm to form Y-shape and another ends were closed, and the three arms were differentiated by the names as A, B and C respectively, and allowed to search freely the maze for 8 minutes. When the mouse was checked to enter into an arm at the length of not less than 10 cm from the entrance of the arm, the name of the arm (A, B or C) was recorded. For the final data gotten, the ratio of the number of the alternation behavior to that of the entries (obtained by subtracting 2 from the total number of arm entries) was estimated as the rate of alternation behavior.
In statistical analysis, the rate of alternation behavior in the amnesia control group was compared with that in the vehicle control group by the Wilcoxon rank sum test and it was checked if a significant amnesia was induced in the amnesia control group. Next, the efficacy of the test compounds was evaluated in comparison between the amnesia control group and each group of test compound A, test compound B or donepezil by the nonparametric Dunnett multiple comparison test. The statistical calculation was carried out with SAS® System (Release 8.02, SAS Institute Inc.) and Preclinical Package Version 5.0 (SAS Institute Japan Ltd.).

[2] = test system: spatial memory disorder induced by scopolamine; assay: Ameliorating effect on spatial memory disorder induced by scopolamine (Y-maze alternation behavior); type: in vivo, ddY male mice; details: for # [MED (mg/kg)] Combined administration with donepezil: minimum effective dose of test compound, combined with donepezil 1 mg/kg; for # [MED (mg/kg)] Combined administration with donepezil / Single administration [MED (mg/kg)]: oral; for Single administration [MED (mg/kg)]: minimum effective dose, 1 h before scopolamine 0.6 mg/kg s.c.; for dose at which spatial memory disorder induced by scopolamine was significantly ameliorated: single oral administration
Experimental: as §1, §2
This experiment was carried out according to the method of Itoh, J., et al. [Eur. J. Pharmacol., 236, pp. 341-345 (1993)].
Ten to twelve ddY male mice weighing 28-34 g were used per one group in the experiment. A solution of scopolamine in physiological saline (concentration: 0.06 mg/ml) was subcutaneously administered to mice in a volume of 0.1 ml/10 g of body weight, i.e., 0.6 mg/kg. […] However, the vehicle control group was injected with physiological saline instead of scopolamine. Thirty minutes after the administration of scopolamine, the mice were placed at the end of the arm A of the Y-maze apparatus which was composed of three black acrylic trapezoid arms (bottom width: 3 cm, height of side wall: 12 cm, width of opened ceiling: 10 cm, length: 40 cm), wherein said three arms were connected at the one end of each arm to form Y-shape and another ends were closed, and the three arms were differentiated by the names as A, B and C respectively, and allowed to search freely the maze for 8 minutes. When the mouse was checked to enter into an arm at the length of not less than 10 cm from the entrance of the arm, the name of the arm (A, B or C) was recorded. For the final data gotten, the ratio of the number of the alternation behavior to that of the entries (obtained by subtracting 2 from the total number of arm entries) was estimated as the rate of alternation behavior.
In statistical analysis, the rate of alternation behavior in the amnesia control group was compared with that in the vehicle control group by the Wilcoxon rank sum test and it was checked if a significant amnesia was induced in the amnesia control group. Next, the efficacy of the test compounds in single use or in combination use of the test compounds with donepezil was evaluated in comparison between the amnesia control group and the single-administration groups using each one of the test compound A, the test compound B or donepezil; or in comparison between the amnesia control group and the combination groups of the test compound A or B and donepezil, by the nonparametric Dunnett multiple comparison test. The statistical calculation was carried out with SAS® System (Release 8.02, SAS Institute Inc.) and Preclinical Package Version 5.0 (SAS Institute Japan Ltd.).

| SMILES | rate of alternation behavior ([1]; amnesia control group, MK-801 0.1 mg/kg s.c., vehicle control group 65-73%) | # [MED (mg/kg)] Combined administration with donepezil ([2]; scopolamine 0.6 mg/kg s.c.) [mg/kg] | Single administration [MED (mg/kg)] ([2]; single administration) [mg/kg] | dose at which spatial memory disorder induced by scopolamine was significantly ameliorated [2] [mg/kg] | [MED (mg/kg)] [1] [mg/kg] | dose at which spatial memory disorder induced by MK-801 was significantly ameliorated ([1]; single oral administration) [mg/kg] | rate of alternation behavior ([2]; amnesia control group, scopolamine 0.6 mg/kg s.c., vehicle control group 63-70%) | amelioration of spatial memory disorder induced by scopolamine ([2]; 1 mg/kg, single administration) | amelioration of spatial memory disorder induced by MK-801 ([1]; single oral administration) |
| --- | --- | --- | --- | --- | --- | --- | --- | --- | --- |
| C[C@]12N[C@H](Cc3ccccc31)c1ccccc12 [MK-801, dizocilipine maleate, reference compound] | 45-47% |  |  |  |  |  |  |  |  |
| O=c1[nH]c2ccnc(-c3ccsc3)c2cc1-c1nc(C2CC2)no1 [Test compound B, 3-(3-cyclopropyl-1,2,4-oxadiazol-5-yl)-5-(3-thienyl)-1,6-naphthyridin-2(1H)-one] |  | 0.01 | 0.1 | ≥ 0.1 | 0.1 | ≥ 0.1 |  |  |  |
| CN1[C@@H]2C[C@@H](OC(=O)[C@H](CO)c3ccccc3)C[C@H]1[C@@H]1O[C@@H]12 [scopolamine, Scopolamine hydrobromide, reference compound] |  |  |  |  |  |  | 39-46% |  |  |
| COc1cccc(-c2nccc3[nH]c(=O)c(-c4noc(C)n4)cc23)c1 [Test compound A, 3-(5-methyl-1,2,4-oxadiazol-3-yl)-5-(3-methoxyphenyl)-1,6-naphthyridin-2(1H)-one] |  | 0.03 | 0.3 | ≥ 0.3 | 0.3 | ≥ 0.3 |  |  |  |
| COc1cc2c(cc1OC)C(=O)C(CC1CCN(Cc3ccccc3)CC1)C2 (centres unmarked) [Donepezil, Donepezil hydrochloride, reference compound] |  |  | 10 | ≥ 10 | >15 |  |  | not ameliorated | not ameliorated |
